Usually IC50 stands for the concentration that gives 50% inhibition.

The text below walks through data of ChEMBL document CHEMBL1126920, “Design and synthesis of an orally active macrocyclic neutral endopeptidase 24.11 inhibitor” (J Med Chem, 1993).

Each structure is given as a SMILES string.

The assay concerns the target T1, Neprilysin (Rattus norvegicus, UniProt P07861).
T1 sequence (P07861 whole entry): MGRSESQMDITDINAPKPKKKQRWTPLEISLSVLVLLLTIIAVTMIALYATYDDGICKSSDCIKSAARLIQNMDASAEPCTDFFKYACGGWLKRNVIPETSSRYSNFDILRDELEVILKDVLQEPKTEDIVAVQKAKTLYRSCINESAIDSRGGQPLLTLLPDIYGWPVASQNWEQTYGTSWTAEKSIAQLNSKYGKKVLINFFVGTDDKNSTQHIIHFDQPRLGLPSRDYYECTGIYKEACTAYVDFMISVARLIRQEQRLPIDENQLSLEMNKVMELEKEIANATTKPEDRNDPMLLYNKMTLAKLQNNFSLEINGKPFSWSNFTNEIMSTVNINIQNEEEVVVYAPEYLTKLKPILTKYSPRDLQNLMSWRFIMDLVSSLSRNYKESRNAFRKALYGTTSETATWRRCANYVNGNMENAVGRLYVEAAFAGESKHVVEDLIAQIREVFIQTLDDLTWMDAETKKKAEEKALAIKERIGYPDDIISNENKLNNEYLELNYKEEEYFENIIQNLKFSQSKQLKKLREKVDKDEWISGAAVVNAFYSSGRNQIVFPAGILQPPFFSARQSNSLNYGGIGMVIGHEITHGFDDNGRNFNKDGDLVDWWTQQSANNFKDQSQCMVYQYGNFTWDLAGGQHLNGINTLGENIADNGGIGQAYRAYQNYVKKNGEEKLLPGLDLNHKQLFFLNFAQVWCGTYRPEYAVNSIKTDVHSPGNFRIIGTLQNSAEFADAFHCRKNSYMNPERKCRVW
The experiment in a line: Inhibition of NEP 24.11 from rat kidney. In kind it is tissue-based.
In the case of `O=C1NC(C(=O)O)CCCCCCC1CS` (single isomer, unassigned; (+)), 3 nM corresponded to half-maximal inhibition (IC50).

Regarding `O=C1NC(C(=O)O)CCCCCCC1CS` (racemic), the IC50 was 4 nM. This IC50 and that of the molecule before are within 1.5-fold of each other.

The molecule `O=C1NC(C(=O)N2C[C@H](O)C[C@H]2C(=O)O)CCCCCCC1CS` (single isomer, unassigned; (-)) yielded an IC50 of 0.8 nM.

As to `NCCCC[C@@H](NC(=O)C1CCCCCCC(CS)C(=O)N1)C(=O)O` (some centres not stated), the IC50 was 14 nM.

Turning to `O=C1NC(C(=O)O)CCCCCCC1CS` (single isomer, unassigned; (-)), the IC50 is greater than 1000 nM.

Turning to `O=C1NC(C(=O)NCCCO)CCCCCCC1CS` (configuration not stated), half-maximal inhibition (IC50) required 209 nM.

In turn, `O=C1NC(C(=O)NCCOCCO)CCCCCCC1CS` (configuration not stated) yielded an IC50 of 84 nM.

`O=C1NC(C(=O)N2CCC[C@H]2C(=O)O)CCCCCCC1CS` (some centres not stated): 2 nM corresponded to half-maximal inhibition (IC50).

The molecule `O=C1NC(C(=O)N[C@H](CO)C(=O)O)CCCCCCC1CS` (some centres not stated) had an IC50 of 11 nM.

`O=C1NC(C(=O)Nc2ccccc2)CCCCCCC1CS` (configuration not stated) yielded an IC50 of 551 nM.

Molecule `O=C1NC(C(=O)Nc2cccnc2)CCCCCCC1CS` (configuration not stated) came in with an IC50 of 59 nM. This IC50 lies about 9.3-fold lower than the previous one.

With `CS(=O)(=O)CCCNC(=O)C1CCCCCCC(CS)C(=O)N1` (configuration not stated), the IC50 is 63 nM.
